According to patent US20260125350A1, “CENTROMERE PROTEIN CENP-M SMALL MOLECULE INHIBITOR CENPEMLIN, AND PREPARATION METHOD THEREFOR AND USE THEREOF” (UNIVERSITY OF SCIENCE AND TECHNOLOGY OF CHINA, priority 2022, published 2026):
One block for each molecule: values may come before it.

How the values were obtained:
[1] = tested on: liver cancer cells MHCC97-H cells; assay: Liver implantation model of luciferase-stable liver cancer cells in mice, luciferase imaging; type: in vivo, NOD/SCID mice; conditions: intraperitoneal injection, 11th day of administration; cenpemlin 2 mg/kg
Description: • 1) According to the published experimental protocol (Chen et al., 2011. Cancer Res), we implanted luciferase-stable liver cancer cells MHCC97-H cells (5×10^6 in 0.1 mL saline) into the liver of 6-week-old female NOD/SCID mice. The experiment was divided into three groups, namely the DMSO control group, the paclitaxel group and the cenpemlin group (2 mg/kg), with 10 mice in each group. • 2) After 14 days of modeling (successful modeling of luciferase test), the DMSO control group, the paclitaxel group and the cenpemlin experimental group (2 mg/kg) were intraperitoneally injected (0.2 mL per mouse; 0.1 mL was injected on both sides) […]. • 3) After four injections every other day (the 11th day of administration), the luciferase test was performed.

[2] = tested on: HeLa cells stably expressing GFP-CENP-N; assay: Chromosome alignment phenotype in mitosis, immunofluorescence imaging; type: cell-based; conditions: 1 μM, 1 h, after thymidine release
Description: • 1) HeLa cells stably expressing GFP-CENP-N were seeded on a round coverslip with a diameter of 12 mm; • 2) after 24 h, Thymidine was added to the cells at a final concentration of 2 mM for 14-16 h; • 3) the cells were washed three times with PBS prewarmed at 37° C. to elute Thymidine, and fresh culture medium was added to continue culturing for 8 h; • 4) cempelin was added to the experimental group at a final concentration of 1 μM, and the control group was added with an equal volume of DMSO for 1 h; • 5) the cells were fixed with PBS buffer containing 3.7% formaldehyde for 10 min; • 6) after 0.2% TritonX-100 permeabilization and 1% BSA blocking, ACA antibody was incubated at room temperature for 1 h; • 7) DAPI was stained for 3 min and then the slides were sealed; • 8) the slides were placed on the DV microscope stage and imaged by a 60×, NA=1.42 lens.

HeLa cells [3] = assay: Real-time live cell imaging of mitosis (mitotic arrest); type: cell-based; conditions: 1 μM
Description: • 1) Inoculate HeLa cells into 35 mm live cell culture dishes; • 2) transfect plasmid DNA: GFP-tubulin and mCherry-H2B after 24 h (the density of transfected plasmid cells is 70%-80%); • 3) replace with fresh culture medium 6 h after transfection and add 2 mM Thymidine to treat cells for 14-16 h; • 4) wash cells 3 times with PBS preheated at 37° C. to release cells, then replace with fresh culture medium to continue culturing; • 5) turn on the Applied Precision Personal DV microscope and thermostat to stabilize the temperature at 37° C.; • 6) 8-9 h after release, replace the cell culture medium with CO2-independent Medium, add cenpemlin with a final concentration of 1 μM or the same volume of DMSO; • 7) place the cells on the 37° C. thermostat stage of the DV microscope and shoot real-time under a 60×, NA=1.42 lens, taking one frame every 3 min.

HeLa cells [4] = assay: Elution (washout) effect, real-time live cell imaging after MG132 and compound treatment; type: cell-based; conditions: 1 h with MG132 20 μM and compound, then washed out
Description: • 1) Seed HeLa cells into 35 mm live-cell imaging dishes; • 2) transfect plasmid DNA after 24 h: GFP-tubulin and mCherry-H2B (the density of transfected plasmid cells is 70%-80%); • 3) replace with fresh culture medium 6 h after transfection and add MG132 at a final concentration of 20 μM and cenpemlin or DMSO to treat the cells for 1 h; • 4) turn on the Applied Precision Personal DV microscope and the thermostat to stabilize the temperature at 37° C.; • 5) wash the cells three times with PBS prewarmed at 37° C. to release the cells, and then replace with fresh culture medium to continue culturing; • 6) immediately after release, replace the cell culture medium with CO2-independent Medium; • 7) place the cells on the 37° C. thermostat stage of the DV microscope and imaging in real time by a 60×, NA=1.42 lens, taking one frame every 3 min.

[5] = biological target: T1, interaction between CENP-M and CENP-L (Homo sapiens, UniProt Q9NSP4); assay: Co-immunoprecipitation of GFP-CENP-M with FLAG-CENP-L from treated HEK293T cells, immunoblot; type: cell-based; conditions: 1 μM, 1 h, FLAG beads pull-down
T1 construct: expressed in transfected cells; host or cells: HEK293T
T1 sequence (Q9NSP4 whole entry): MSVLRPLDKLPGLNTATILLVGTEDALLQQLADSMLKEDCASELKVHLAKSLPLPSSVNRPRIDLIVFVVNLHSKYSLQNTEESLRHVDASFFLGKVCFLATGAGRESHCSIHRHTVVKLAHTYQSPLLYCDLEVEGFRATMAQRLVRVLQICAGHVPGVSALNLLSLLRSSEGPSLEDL
Description: • 1) Inoculate HEK293T cells into 6 cm culture dishes; • 2) transfect plasmid DNA: GFP-CENP-M and FLAG-CENP-L after 24 h (the density of cells is 70%-80%); • 3) replace with fresh culture medium 4 h after transfection and continue to culture for 24 h; • 4) add cenpemlin with a final concentration of 1 μM or the same volume of DMSO to treat cells for 1 h; • 5) scrape the cells with a cell scraper, collect them in a centrifuge tube, and remove the culture medium by centrifugation at 1,000 rpm; • 6) add cell lysis buffer for ultrasonic disruption, and centrifuge at 12,000 rpm for 10 min; • 7) take the supernatant and incubate with FLAG beads for 4 h; • 8) wash the beads for three times with cell lysis buffer, boil the sample with sample buffer, and then perform electrophoresis and immunoblot analysis.

[6] = tested on: HeLa cells (cervical cancer cells); assay: Trypan blue staining of cancer cells after treatment; type: cell-based; conditions: 1 μM, 24 h
Description: (§1) • 1) HeLa cells (cervical cancer cells), MDA-MB-231 cells (triple negative breast cancer cells) and HepG2 cells (liver cancer cells) were seeded into 6 cm culture dishes; • 2) The small molecule compound cenpemlin or DMSO was added at a final concentration of 1 μM to treat the cells for 24 h; • 3) The cells were digested with trypsin and the cell suspension was taken for trypan blue staining; • 4) The blue-stained cells were observed and counted under an ordinary optical microscope.

[7] = tested on: HepG2 cells (liver cancer cells); assay: as above; type: cell-based; conditions: 1 μM, 24 h
Description: as §1

[8] = tested on: MDA-MB-231 cells (triple negative breast cancer cells); assay: as above; type: cell-based; conditions: 1 μM, 24 h
Description: as §1

SMILES: CC(=O)O[C@H]1C(=O)[C@@]2(C)[C@H]([C@H](OC(=O)c3ccccc3)[C@]3(O)C[C@H](OC(=O)[C@H](O)[C@@H](NC(=O)c4ccccc4)c4ccccc4)C(C)=C1C3(C)C)[C@]1(OC(C)=O)CO[C@@H]1C[C@@H]2O [paclitaxel, reference compound]
number of cancer cells in the liver of mice (luciferase test) [1]: significantly reduced

interaction between CENP-M and CENP-L compared with control group [5]: weakened
SMILES: OCC(O)C(O)C(O)C(O)/C=N/Nc1nc(N2CCOCC2)nc(N2CCOCC2)n1 (centres unmarked) [cenpemlin]
chromosome alignment in cell mitosis [2]: abnormal chromosome alignment | time after nuclear membrane rupture without entering the late stage (HeLa cells [3]; HeLa): > 120 min | mitotic progression (delay) (HeLa cells [3]; HeLa GFP-tubulin/mCherry-H2B): obvious mitotic delays | spindle phenotype after elution (HeLa cells [4]): multipolar spindles | time to exit mitosis after elution (HeLa cells [4]): 45 min | proportion of trypan blue stained cells [6]: increase | proportion of trypan blue stained cells [7]: increase | proportion of trypan blue stained cells [8]: increase | number of cancer cells in the liver of mice (luciferase test) [1]: significantly reduced
